Data on seven compounds can be found in ChEMBL document CHEMBL5442219.

As a reminder, the inhibition is the drop in the measured response relative to a control, in per cent.

Common to all, as to details: Compound concentration 10 µM
The target in experiment [1] is T1, Alpha-1A adrenergic receptor (Homo sapiens) (UniProt P35348).
T1 sequence (whole entry): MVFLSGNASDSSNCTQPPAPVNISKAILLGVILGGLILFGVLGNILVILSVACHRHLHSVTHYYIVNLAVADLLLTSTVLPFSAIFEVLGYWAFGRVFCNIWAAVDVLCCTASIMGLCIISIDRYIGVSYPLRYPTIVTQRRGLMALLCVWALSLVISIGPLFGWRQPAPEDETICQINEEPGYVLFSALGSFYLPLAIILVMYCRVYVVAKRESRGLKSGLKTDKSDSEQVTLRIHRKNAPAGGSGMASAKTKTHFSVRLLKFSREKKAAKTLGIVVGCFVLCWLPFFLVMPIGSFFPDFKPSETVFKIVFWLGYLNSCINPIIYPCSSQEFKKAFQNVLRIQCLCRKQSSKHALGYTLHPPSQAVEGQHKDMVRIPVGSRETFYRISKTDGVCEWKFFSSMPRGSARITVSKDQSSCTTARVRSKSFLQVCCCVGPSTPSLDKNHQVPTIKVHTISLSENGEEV
Description: PDSP Primary Binding target: ADRA1A - Compounds are tested at 10 uM concentration, plate are incubated at room temperature in the dark for 90 minutes. Reaction are stopped by vacuum filtration onto 0.3% polyethyleneimine soaked filter mats using Filtermate harvester. Scintilation cocktail is then melted onto microwave-dried filters on a hot plate and the radio activity is counted in Microbia counter.

The target in experiment [2] is T2, Alpha-2C adrenergic receptor (Homo sapiens) (UniProt P18825).
T2 sequence (whole entry): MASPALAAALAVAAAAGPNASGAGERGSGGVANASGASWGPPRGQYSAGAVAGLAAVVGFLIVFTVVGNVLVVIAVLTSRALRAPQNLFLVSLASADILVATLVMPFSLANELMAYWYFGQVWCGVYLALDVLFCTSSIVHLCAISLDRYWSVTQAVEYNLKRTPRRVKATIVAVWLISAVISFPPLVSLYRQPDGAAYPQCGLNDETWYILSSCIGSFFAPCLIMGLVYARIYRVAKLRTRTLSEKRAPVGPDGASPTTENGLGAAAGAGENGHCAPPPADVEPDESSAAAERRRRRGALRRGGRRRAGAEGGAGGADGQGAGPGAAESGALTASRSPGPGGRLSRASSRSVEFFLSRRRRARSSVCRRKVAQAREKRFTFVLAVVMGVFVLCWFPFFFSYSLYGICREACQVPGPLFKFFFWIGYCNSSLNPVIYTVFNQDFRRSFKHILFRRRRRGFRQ
Description: PDSP Primary Binding target: ADRA2C - Compounds are tested at 10 uM concentration, plate are incubated at room temperature in the dark for 90 minutes. Reaction are stopped by vacuum filtration onto 0.3% polyethyleneimine soaked filter mats using Filtermate harvester. Scintilation cocktail is then melted onto microwave-dried filters on a hot plate and the radio activity is counted in Microbia counter.

Experiment [3] concerns the target Beta-1 adrenergic receptor (Homo sapiens) (UniProt P08588).
Description: PDSP Primary Binding target: ADRB1 - Compounds are tested at 10 uM concentration, plate are incubated at room temperature in the dark for 90 minutes. Reaction are stopped by vacuum filtration onto 0.3% polyethyleneimine soaked filter mats using Filtermate harvester. Scintilation cocktail is then melted onto microwave-dried filters on a hot plate and the radio activity is counted in Microbia counter.
Experiment [4] has as its target T3, Muscarinic acetylcholine receptor M2 (Homo sapiens) (UniProt P08172).
T3 sequence (whole entry): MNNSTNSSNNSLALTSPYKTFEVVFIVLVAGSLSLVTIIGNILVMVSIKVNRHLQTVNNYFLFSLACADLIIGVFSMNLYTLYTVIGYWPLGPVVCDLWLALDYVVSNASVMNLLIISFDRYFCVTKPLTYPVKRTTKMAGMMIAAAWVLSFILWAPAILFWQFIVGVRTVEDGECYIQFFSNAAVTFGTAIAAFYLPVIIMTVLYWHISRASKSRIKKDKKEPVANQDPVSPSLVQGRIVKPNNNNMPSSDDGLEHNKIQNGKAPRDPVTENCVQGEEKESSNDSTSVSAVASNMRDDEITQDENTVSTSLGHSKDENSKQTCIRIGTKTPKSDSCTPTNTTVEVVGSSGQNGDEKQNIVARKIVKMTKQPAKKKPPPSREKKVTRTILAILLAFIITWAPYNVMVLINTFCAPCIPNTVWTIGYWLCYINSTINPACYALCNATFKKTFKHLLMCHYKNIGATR
Description: PDSP Primary Binding target: CHRM2 - Compounds are tested at 10 uM concentration, plate are incubated at room temperature in the dark for 90 minutes. Reaction are stopped by vacuum filtration onto 0.3% polyethyleneimine soaked filter mats using Filtermate harvester. Scintilation cocktail is then melted onto microwave-dried filters on a hot plate and the radio activity is counted in Microbia counter.

Experiment [5] concerns the target D(1A) dopamine receptor (Homo sapiens) (UniProt P21728).
Description: PDSP Primary Binding target: DRD1 - Compounds are tested at 10 uM concentration, plate are incubated at room temperature in the dark for 90 minutes. Reaction are stopped by vacuum filtration onto 0.3% polyethyleneimine soaked filter mats using Filtermate harvester. Scintilation cocktail is then melted onto microwave-dried filters on a hot plate and the radio activity is counted in Microbia counter.
Experiment [6] concerns the target D(2) dopamine receptor (Homo sapiens) (UniProt P14416).
Description: PDSP Primary Binding target: DRD2 - Compounds are tested at 10 uM concentration, plate are incubated at room temperature in the dark for 90 minutes. Reaction are stopped by vacuum filtration onto 0.3% polyethyleneimine soaked filter mats using Filtermate harvester. Scintilation cocktail is then melted onto microwave-dried filters on a hot plate and the radio activity is counted in Microbia counter.
In experiment [7] the target is D(1B) dopamine receptor (Homo sapiens) (UniProt P21918).
Sequence of D(1B) dopamine receptor (Homo sapiens) (P21918 whole entry): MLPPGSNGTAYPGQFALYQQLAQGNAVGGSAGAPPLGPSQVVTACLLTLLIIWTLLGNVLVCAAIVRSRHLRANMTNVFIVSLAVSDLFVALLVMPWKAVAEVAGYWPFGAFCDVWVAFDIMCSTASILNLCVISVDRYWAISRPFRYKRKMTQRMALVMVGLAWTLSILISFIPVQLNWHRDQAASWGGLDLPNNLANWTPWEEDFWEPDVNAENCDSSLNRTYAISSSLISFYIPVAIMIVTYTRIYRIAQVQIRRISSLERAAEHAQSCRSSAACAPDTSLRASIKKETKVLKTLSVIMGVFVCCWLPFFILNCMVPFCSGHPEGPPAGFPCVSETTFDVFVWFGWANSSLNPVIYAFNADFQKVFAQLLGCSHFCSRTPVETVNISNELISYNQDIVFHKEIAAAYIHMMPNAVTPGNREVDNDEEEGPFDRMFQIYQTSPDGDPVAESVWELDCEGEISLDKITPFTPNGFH
Description: PDSP Primary Binding target: DRD5 - Compounds are tested at 10 uM concentration, plate are incubated at room temperature in the dark for 90 minutes. Reaction are stopped by vacuum filtration onto 0.3% polyethyleneimine soaked filter mats using Filtermate harvester. Scintilation cocktail is then melted onto microwave-dried filters on a hot plate and the radio activity is counted in Microbia counter.
The target in experiment [8] is Histamine H3 receptor (Homo sapiens) (UniProt Q9Y5N1).
Sequence of Histamine H3 receptor (Homo sapiens) (Q9Y5N1 whole entry): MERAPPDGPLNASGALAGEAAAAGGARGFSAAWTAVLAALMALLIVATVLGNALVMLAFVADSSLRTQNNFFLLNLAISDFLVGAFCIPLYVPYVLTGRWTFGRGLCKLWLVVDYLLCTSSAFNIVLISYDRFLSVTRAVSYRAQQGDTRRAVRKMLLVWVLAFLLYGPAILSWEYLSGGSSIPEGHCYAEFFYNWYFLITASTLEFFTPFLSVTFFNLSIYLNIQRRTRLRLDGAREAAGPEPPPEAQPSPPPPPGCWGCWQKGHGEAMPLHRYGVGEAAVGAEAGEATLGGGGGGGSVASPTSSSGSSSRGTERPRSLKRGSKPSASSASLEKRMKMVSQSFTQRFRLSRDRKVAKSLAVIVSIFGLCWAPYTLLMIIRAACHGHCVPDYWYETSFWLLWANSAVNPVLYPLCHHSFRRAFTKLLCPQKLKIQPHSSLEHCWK
Description: PDSP Primary Binding target: HRH3 - Compounds are tested at 10 uM concentration, plate are incubated at room temperature in the dark for 90 minutes. Reaction are stopped by vacuum filtration onto 0.3% polyethyleneimine soaked filter mats using Filtermate harvester. Scintilation cocktail is then melted onto microwave-dried filters on a hot plate and the radio activity is counted in Microbia counter.
The target of experiment [9] is 5-hydroxytryptamine receptor 1B (Homo sapiens) (UniProt P28222).
Description: PDSP Primary Binding target: HTR1B - Compounds are tested at 10 uM concentration, plate are incubated at room temperature in the dark for 90 minutes. Reaction are stopped by vacuum filtration onto 0.3% polyethyleneimine soaked filter mats using Filtermate harvester. Scintilation cocktail is then melted onto microwave-dried filters on a hot plate and the radio activity is counted in Microbia counter.
Experiment [10] concerns the target 5-hydroxytryptamine receptor 1E (Homo sapiens) (UniProt P28566).
Description: PDSP Primary Binding target: HTR1E - Compounds are tested at 10 uM concentration, plate are incubated at room temperature in the dark for 90 minutes. Reaction are stopped by vacuum filtration onto 0.3% polyethyleneimine soaked filter mats using Filtermate harvester. Scintilation cocktail is then melted onto microwave-dried filters on a hot plate and the radio activity is counted in Microbia counter.
Experiment [11] deals with 5-hydroxytryptamine receptor 2A (Homo sapiens) (UniProt P28223).
Sequence of 5-hydroxytryptamine receptor 2A (Homo sapiens) (P28223 whole entry): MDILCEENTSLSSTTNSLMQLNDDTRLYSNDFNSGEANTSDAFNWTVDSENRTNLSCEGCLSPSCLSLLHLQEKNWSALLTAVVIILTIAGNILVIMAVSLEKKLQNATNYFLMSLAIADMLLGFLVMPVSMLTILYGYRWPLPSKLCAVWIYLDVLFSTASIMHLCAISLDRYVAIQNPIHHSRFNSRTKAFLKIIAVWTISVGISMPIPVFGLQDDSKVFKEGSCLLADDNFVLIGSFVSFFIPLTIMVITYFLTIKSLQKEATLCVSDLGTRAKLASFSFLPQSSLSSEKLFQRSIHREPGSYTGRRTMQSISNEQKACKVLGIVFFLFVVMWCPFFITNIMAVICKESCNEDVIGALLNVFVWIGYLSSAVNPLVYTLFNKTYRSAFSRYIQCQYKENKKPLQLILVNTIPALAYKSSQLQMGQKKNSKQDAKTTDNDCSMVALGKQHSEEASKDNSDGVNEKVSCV
Description: PDSP Primary Binding target: HTR2A - Compounds are tested at 10 uM concentration, plate are incubated at room temperature in the dark for 90 minutes. Reaction are stopped by vacuum filtration onto 0.3% polyethyleneimine soaked filter mats using Filtermate harvester. Scintilation cocktail is then melted onto microwave-dried filters on a hot plate and the radio activity is counted in Microbia counter.
Experiment [12] concerns the target T4, 5-hydroxytryptamine receptor 3A (Homo sapiens) (UniProt P46098).
T4 sequence (whole entry): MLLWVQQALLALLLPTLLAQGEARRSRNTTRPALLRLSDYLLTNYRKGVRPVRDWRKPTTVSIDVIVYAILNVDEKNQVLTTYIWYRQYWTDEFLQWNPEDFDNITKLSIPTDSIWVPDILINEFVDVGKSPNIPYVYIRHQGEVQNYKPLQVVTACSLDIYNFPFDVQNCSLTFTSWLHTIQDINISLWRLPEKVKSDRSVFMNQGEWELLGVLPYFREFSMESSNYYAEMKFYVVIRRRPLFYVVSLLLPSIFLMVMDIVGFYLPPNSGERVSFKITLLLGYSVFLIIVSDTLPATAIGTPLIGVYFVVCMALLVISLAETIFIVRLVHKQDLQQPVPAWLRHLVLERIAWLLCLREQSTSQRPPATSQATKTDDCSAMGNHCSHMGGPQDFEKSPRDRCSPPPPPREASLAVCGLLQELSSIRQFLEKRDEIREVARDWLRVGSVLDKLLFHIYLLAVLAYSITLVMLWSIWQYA
Description: PDSP Primary Binding target: HTR3A - Compounds are tested at 10 uM concentration, plate are incubated at room temperature in the dark for 90 minutes. Reaction are stopped by vacuum filtration onto 0.3% polyethyleneimine soaked filter mats using Filtermate harvester. Scintilation cocktail is then melted onto microwave-dried filters on a hot plate and the radio activity is counted in Microbia counter.

The target of experiment [13] is 5-hydroxytryptamine receptor 6 (Homo sapiens) (UniProt P50406).
Description: PDSP Primary Binding target: HTR6 - Compounds are tested at 10 uM concentration, plate are incubated at room temperature in the dark for 90 minutes. Reaction are stopped by vacuum filtration onto 0.3% polyethyleneimine soaked filter mats using Filtermate harvester. Scintilation cocktail is then melted onto microwave-dried filters on a hot plate and the radio activity is counted in Microbia counter.
The target of experiment [14] is 5-hydroxytryptamine receptor 7 (Homo sapiens) (UniProt P34969).
Sequence of 5-hydroxytryptamine receptor 7 (Homo sapiens) (P34969 whole entry): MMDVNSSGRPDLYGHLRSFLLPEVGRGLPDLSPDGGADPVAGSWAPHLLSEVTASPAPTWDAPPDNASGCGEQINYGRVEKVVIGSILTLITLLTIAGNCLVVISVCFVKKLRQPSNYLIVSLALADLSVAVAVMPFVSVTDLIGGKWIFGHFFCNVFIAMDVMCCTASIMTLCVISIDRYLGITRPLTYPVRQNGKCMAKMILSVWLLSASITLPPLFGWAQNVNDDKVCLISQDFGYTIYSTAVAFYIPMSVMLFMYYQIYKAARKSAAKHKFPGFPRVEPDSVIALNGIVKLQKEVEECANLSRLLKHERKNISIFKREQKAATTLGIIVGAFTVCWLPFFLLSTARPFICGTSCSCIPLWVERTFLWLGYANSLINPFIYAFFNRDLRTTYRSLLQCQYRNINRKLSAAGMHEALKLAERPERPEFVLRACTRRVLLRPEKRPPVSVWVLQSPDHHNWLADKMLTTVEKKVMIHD
Description: PDSP Primary Binding target: HTR7 - Compounds are tested at 10 uM concentration, plate are incubated at room temperature in the dark for 90 minutes. Reaction are stopped by vacuum filtration onto 0.3% polyethyleneimine soaked filter mats using Filtermate harvester. Scintilation cocktail is then melted onto microwave-dried filters on a hot plate and the radio activity is counted in Microbia counter.
The target in experiment [15] is Delta-type opioid receptor (Homo sapiens) (UniProt P41143).
Sequence of Delta-type opioid receptor (Homo sapiens) (P41143 whole entry): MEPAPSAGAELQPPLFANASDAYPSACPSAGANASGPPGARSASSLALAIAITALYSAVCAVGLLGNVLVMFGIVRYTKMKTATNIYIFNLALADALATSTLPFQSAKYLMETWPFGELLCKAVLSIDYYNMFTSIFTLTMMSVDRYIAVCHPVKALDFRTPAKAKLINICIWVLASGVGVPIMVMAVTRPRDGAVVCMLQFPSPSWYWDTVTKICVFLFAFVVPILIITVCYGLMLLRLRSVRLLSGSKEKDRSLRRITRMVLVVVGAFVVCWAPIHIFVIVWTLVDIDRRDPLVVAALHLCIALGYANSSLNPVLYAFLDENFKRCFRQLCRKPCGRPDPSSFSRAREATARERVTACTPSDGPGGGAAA
Description: PDSP Primary Binding target: OPRD1 - Compounds are tested at 10 uM concentration, plate are incubated at room temperature in the dark for 90 minutes. Reaction are stopped by vacuum filtration onto 0.3% polyethyleneimine soaked filter mats using Filtermate harvester. Scintilation cocktail is then melted onto microwave-dried filters on a hot plate and the radio activity is counted in Microbia counter.
Experiment [16] has as its target Kappa-type opioid receptor (Homo sapiens) (UniProt P41145).
Description: PDSP Primary Binding target: OPRK1 - Compounds are tested at 10 uM concentration, plate are incubated at room temperature in the dark for 90 minutes. Reaction are stopped by vacuum filtration onto 0.3% polyethyleneimine soaked filter mats using Filtermate harvester. Scintilation cocktail is then melted onto microwave-dried filters on a hot plate and the radio activity is counted in Microbia counter.
In experiment [17] the target is Sigma non-opioid intracellular receptor 1 (Homo sapiens) (UniProt Q99720).
Sequence of Sigma non-opioid intracellular receptor 1 (Homo sapiens) (Q99720 whole entry): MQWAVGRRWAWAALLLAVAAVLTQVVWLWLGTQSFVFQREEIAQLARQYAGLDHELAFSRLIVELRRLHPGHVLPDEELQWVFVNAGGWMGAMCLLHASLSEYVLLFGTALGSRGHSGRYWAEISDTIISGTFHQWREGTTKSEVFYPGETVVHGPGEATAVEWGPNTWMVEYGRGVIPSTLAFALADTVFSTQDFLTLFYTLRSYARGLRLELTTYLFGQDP
Description: PDSP Primary Binding target: SIGMAR1 - Compounds are tested at 10 uM concentration, plate are incubated at room temperature in the dark for 90 minutes. Reaction are stopped by vacuum filtration onto 0.3% polyethyleneimine soaked filter mats using Filtermate harvester. Scintilation cocktail is then melted onto microwave-dried filters on a hot plate and the radio activity is counted in Microbia counter.
Experiment [18] concerns the target Sodium-dependent serotonin transporter (Homo sapiens) (UniProt P31645).
Description: PDSP Primary Binding target: SLC6A4 - Compounds are tested at 10 uM concentration, plate are incubated at room temperature in the dark for 90 minutes. Reaction are stopped by vacuum filtration onto 0.3% polyethyleneimine soaked filter mats using Filtermate harvester. Scintilation cocktail is then melted onto microwave-dried filters on a hot plate and the radio activity is counted in Microbia counter.
In experiment [19] the target is Sigma intracellular receptor 2 (Homo sapiens) (UniProt Q5BJF2).
Description: PDSP Primary Binding target: TMEM97 - Compounds are tested at 10 uM concentration, plate are incubated at room temperature in the dark for 90 minutes. Reaction are stopped by vacuum filtration onto 0.3% polyethyleneimine soaked filter mats using Filtermate harvester. Scintilation cocktail is then melted onto microwave-dried filters on a hot plate and the radio activity is counted in Microbia counter.
The target of experiment [20] is Translocator protein (Homo sapiens) (UniProt P30536).
Sequence of Translocator protein (Homo sapiens) (P30536 whole entry): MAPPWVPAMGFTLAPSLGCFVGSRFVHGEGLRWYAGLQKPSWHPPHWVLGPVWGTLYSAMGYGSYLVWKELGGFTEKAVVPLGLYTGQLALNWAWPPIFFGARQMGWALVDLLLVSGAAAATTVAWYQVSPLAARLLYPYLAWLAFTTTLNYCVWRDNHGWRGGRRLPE
Description: PDSP Primary Binding target: TSPO - Compounds are tested at 10 uM concentration, plate are incubated at room temperature in the dark for 90 minutes. Reaction are stopped by vacuum filtration onto 0.3% polyethyleneimine soaked filter mats using Filtermate harvester. Scintilation cocktail is then melted onto microwave-dried filters on a hot plate and the radio activity is counted in Microbia counter.

Sequence of D(1A) dopamine receptor (Homo sapiens) (P21728 whole entry): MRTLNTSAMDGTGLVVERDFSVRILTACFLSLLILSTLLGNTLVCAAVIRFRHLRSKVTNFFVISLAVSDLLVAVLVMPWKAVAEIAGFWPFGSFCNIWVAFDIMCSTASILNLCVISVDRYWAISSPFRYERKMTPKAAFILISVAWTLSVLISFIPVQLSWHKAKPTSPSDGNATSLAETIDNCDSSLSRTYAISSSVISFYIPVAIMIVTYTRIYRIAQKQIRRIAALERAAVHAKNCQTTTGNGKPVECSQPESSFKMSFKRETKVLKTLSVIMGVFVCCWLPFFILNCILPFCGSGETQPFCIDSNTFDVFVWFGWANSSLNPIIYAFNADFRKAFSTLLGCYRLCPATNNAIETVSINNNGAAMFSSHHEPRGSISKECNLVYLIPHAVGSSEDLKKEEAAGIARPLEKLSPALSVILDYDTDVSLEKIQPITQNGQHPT
Sequence of 5-hydroxytryptamine receptor 1E (Homo sapiens) (P28566 whole entry): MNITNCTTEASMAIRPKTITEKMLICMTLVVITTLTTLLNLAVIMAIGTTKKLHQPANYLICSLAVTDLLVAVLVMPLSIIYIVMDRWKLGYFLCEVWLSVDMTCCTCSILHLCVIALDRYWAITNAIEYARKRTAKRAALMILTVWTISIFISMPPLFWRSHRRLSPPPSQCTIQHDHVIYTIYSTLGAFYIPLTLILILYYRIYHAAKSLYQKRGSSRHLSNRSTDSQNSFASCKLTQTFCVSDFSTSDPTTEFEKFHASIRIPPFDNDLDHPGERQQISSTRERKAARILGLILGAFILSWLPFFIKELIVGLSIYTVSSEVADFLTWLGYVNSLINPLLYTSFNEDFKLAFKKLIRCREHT
Sequence of Kappa-type opioid receptor (Homo sapiens) (P41145 whole entry): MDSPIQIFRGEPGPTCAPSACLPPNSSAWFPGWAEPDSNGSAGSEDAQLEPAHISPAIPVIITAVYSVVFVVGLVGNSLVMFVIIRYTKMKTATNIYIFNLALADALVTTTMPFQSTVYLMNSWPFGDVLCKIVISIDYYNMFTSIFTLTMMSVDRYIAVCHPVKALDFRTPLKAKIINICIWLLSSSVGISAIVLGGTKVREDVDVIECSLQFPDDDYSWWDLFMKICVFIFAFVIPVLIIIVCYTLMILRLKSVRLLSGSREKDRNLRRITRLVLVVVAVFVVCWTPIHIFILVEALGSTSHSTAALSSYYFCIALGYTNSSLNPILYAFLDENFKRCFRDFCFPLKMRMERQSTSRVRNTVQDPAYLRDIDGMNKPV
Sequence of Beta-1 adrenergic receptor (Homo sapiens) (P08588 whole entry, looked up): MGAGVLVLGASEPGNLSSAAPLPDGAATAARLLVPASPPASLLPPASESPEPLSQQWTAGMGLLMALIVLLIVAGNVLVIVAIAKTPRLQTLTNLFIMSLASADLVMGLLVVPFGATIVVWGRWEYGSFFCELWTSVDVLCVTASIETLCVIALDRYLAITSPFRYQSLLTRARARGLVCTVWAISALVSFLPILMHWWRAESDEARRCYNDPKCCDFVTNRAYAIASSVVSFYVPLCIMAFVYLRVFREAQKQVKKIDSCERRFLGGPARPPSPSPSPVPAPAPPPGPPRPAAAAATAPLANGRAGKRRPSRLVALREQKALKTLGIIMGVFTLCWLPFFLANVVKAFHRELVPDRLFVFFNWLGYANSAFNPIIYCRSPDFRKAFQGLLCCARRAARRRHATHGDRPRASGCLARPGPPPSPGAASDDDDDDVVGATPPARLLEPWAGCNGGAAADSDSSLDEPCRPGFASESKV
Sequence of D(2) dopamine receptor (Homo sapiens) (P14416 whole entry): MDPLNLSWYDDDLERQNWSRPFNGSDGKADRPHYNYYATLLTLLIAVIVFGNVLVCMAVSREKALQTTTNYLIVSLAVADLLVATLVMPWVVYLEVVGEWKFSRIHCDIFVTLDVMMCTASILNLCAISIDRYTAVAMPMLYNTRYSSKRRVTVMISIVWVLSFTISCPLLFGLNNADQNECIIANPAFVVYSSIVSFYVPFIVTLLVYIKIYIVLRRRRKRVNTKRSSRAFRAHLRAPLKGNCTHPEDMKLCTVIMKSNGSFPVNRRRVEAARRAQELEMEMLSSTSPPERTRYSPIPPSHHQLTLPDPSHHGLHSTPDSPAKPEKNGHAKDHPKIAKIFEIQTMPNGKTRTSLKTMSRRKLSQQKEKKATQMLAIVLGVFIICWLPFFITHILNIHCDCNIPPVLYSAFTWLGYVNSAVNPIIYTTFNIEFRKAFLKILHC

Turning to `NCCc1cn(S(=O)(=O)c2c(Cl)nc3sccn23)c2ccccc12`, the inhibition in [1] was 57.5%; in [2] it was 42.5%; in [3], 44.4%; in experiment [4], 15.1%; in [5] it was 41.2%; in experiment [6], 42.1%. Besides, the inhibition was 38.9% in [7]; 55.7% in [8]; 82.5% in experiment [9]; 23.3% in experiment [10]; 94.2% in [11]; 79.2% in [12]. For the same compound, the inhibition in [13] was 99.3%; in experiment [14], 66.9%; in experiment [15], 6.57%; in experiment [16], 32.8%; in [17] it was 78.7%; in experiment [18] it was 40.4%. Further, the inhibition is 82.9% in experiment [19] and -4.24% in experiment [20].
In the case of `NC(=O)[C@@H]1CCCN1C(=O)[C@H](Cc1c[nH]cn1)NC(=O)[C@@H]1CCC(=O)N1`, the inhibition is -7.07% in [1]; 49.8% in [2]; -1.74% in experiment [3]; -6.24% in experiment [4]; -1.35% in experiment [5]; -4.39% in experiment [6]. Moreover, the inhibition in experiment [7] was 0.19%; in experiment [8] it was 10.9%; in experiment [9], 7.27%; in experiment [10], -5.34%; in experiment [11], 23.5%; in experiment [12], 8.73%. Moreover, the inhibition in [13] was 10.6%; in experiment [14] it was -8.14%; in [15], 1.37%; in experiment [16] it was 6.58%; in [17], 34.1%; in experiment [18], 5.26%. The values for the inhibition in experiment [19] and in [20] were 35% and 73.2%, respectively.
For the compound `Cc1c(P(=S)(c2ccccc2)c2ccccc2)n2ccccc2[n+]1C/C=C/c1ccccc1`, the inhibition in [1] was 28.7%; in [2] it was 101%; in [3], 36.1%; in [4], 57.4%; in experiment [5], 16.3%; in [6], 49%. In addition, the inhibition is 24.6% in experiment [7]; 15% in experiment [8]; 45.4% in [9]; 1.99% in [10]; 55.7% in experiment [11]; 20.9% in [12]. Besides, the inhibition in [13] was 43.6%; in [14], 34.3%; in experiment [15], 36.7%; in experiment [16], 101%; in [17], 67.2%; in experiment [18] it was 29.7%. Also, the inhibition was 88% in [19] and 6.66% in experiment [20].
Regarding `c1nc(CC2CCNCC2)c[nH]1`, the inhibition in experiment [1] was -4.11%; in [2], -1.91%; in experiment [3], -4.6%; in [4], 10.6%; in experiment [5], 24.2%; in experiment [6], 27.8%. The inhibition in experiment [7] was 5.35%; in experiment [8], 95.9%; in experiment [9], 17.7%; in experiment [10], 9.31%; in experiment [11], 20.8%; in experiment [12] it was 6.29%. For the same compound, the inhibition in experiment [13] is 18.8%; in experiment [14] it was 11.9%; in experiment [15], 3.71%; in experiment [17], 38.7%; in experiment [18] it was 1.26%; in experiment [19], 27.7%.
For the compound `CN1CCC(C(=O)c2cccc(NC(=O)c3c(F)cc(F)cc3F)n2)CC1`, the inhibition in [1] was 17.6%; in experiment [2], 6.36%; in [3], -2.95%; in experiment [4], -1.5%; in experiment [5] it was 15.1%; in experiment [6], 26.2%. For the same compound, the inhibition was 73.7% in experiment [7]; 3.79% in [8]; 43.4% in [9]; 102% in [10]; 1.42% in experiment [11]; 20.9% in [12]. Further, the inhibition was 11.4% in [13]; 52.8% in experiment [14]; 1.97% in [15]; 69.2% in experiment [16]; 81.6% in experiment [17]; 10.4% in experiment [18]. Moreover, the inhibition in [19] is 91%.
As for `CN(C)C(=O)N[C@H]1CC[C@H](CCN2CCN(c3cccc(Cl)c3Cl)CC2)CC1`, the inhibition was 89.1% in experiment [1]; 98% in [2]; 92.4% in experiment [3]; 29.1% in [4]; 36.3% in experiment [5]; 100% in experiment [6]. Besides, the inhibition in [7] was -0.02%; in experiment [8], 4.23%; in [9] it was 93.7%; in [10], 48%; in [11], 110%; in experiment [12], 6.73%. In addition, the inhibition is 69.7% in experiment [13]; 104% in experiment [14]; 11.3% in experiment [15]; 5.62% in experiment [16]; 55% in experiment [18]; 88.3% in experiment [19]. Moreover, the inhibition in experiment [20] was 29%.
As for `Cc1cc(NC(=O)NCCN2CCC(O)(Cc3ccccc3)CC2)c2ccccc2n1`, the inhibition in [1] is 23.9%; in [2], 37.3%; in experiment [3], 25.5%; in [4], 16.1%; in experiment [5], 10.7%; in experiment [6] it was 65.3%. Moreover, the inhibition is 41.9% in [7]; 31% in [8]; 11.5% in experiment [9]; 5.03% in experiment [10]; 52.7% in experiment [11]; 4.17% in experiment [12]. For the same compound, the inhibition is 8.02% in [13]; 32% in experiment [14]; 15.6% in [15]; 31.9% in experiment [16]; 56.9% in experiment [17]; 66.3% in experiment [18]. Moreover, the figures for the inhibition in experiment [19] and in experiment [20] were 86% and 44.3%, respectively.
